Results from patent US20250115828A1, “INACTIVATING AGENT FOR ENVELOPED VIRUSES” (priority 2022, published 2025).
Read-outs that look alike come from different tables or passages of the source.

What was measured:
[1] = tested on: Influenza A virus (H1N1, A/PR/8/34) ATCC VR-1469; experiment: Anti-influenza virus verification test (focus assay on MDCK cells); format: cell-based; conditions: for Evaluation result (Δ LOG (FFU/mL) class) / Minimum inactivation concentration: Influenza virus; for inactivation effect in the presence of hardness components (in words): Table 5: influenza virus, 4 °DH, contact 10 min; for Minimum inactivation concentration: minimum concentration at which Δ LOG (FFU/mL) is 3 or more
[2] = Critical micelle concentration at 25° C. by pyrene fluorescence intensity ratio I1/I3; format: physicochemical; conditions: ion exchange water
Protocol: A critical micelle concentration of component (a) or (a′) at 25° C. was measured by the method below.
A 1×10^−3 mol/L ethanol solution of pyrene (FUJIFILM Wako Pure Chemical Corporation) was prepared in a brown screw cap tube, and 5 μl of the solution was placed in a screw cap tube (No. 3) and dried with dry air. 5 mL of an aqueous solution of component (a) or (a′) to be measured (prepared with ion exchange water) was added thereto and processed with an ultrasonic cleaner for 15 minutes, and using this, fluorescence spectrum measurements were performed with a fluorescence spectrophotometer (Fluorescence Spectrophotometer F-7000 (manufactured by Hitachi High-Tech Corporation)). Fluorescence intensities I1 and I3 at wavelengths λ1 of 373 nm and λ3 of 384 nm were measured under the measurement conditions below to calculate fluorescence intensity ratio I1/I3.
A graph was prepared on which the horizontal axis plots a concentration of component (a) or (a′) and the vertical axis plots a fluorescence intensity ratio I1/I3, at each concentration, and a surfactant concentration at the midpoint between the maximum value and the minimum value of I1/I3 was taken as the critical micelle concentration.
Excitation wavelength: 339 nm, slit on the excitation side: […], slit on the fluorescence side: […], scanning rate: 60 nm/min, liquid temperature: 25° C., measurement range: 350 to 400 nm

[3] = tested on: Betacoronavirus 1 (OC43) ATCC VR-1558; experiment: Anti-human coronavirus verification test (TCID50 on HCT-8 cells); format: cell-based
[4] = tested on: Pseudomonas syringae phage ϕ6 (NBRC 105899); experiment: Anti-bacteriophage ϕ6 verification test (plaque assay); format: cell-based; conditions: Bacteriophage Φ6; hardness of water 0 °DH; contact time 10 min; minimum concentration at which Δ LOG (PFU/mL) is 3 or more
[5] = Krafft point measurement with rhodamine 6G; format: physicochemical; conditions: 0.2 mass % in ion exchange water
Protocol: A krafft point of component (a) or (a′) was measured by the method below.
A solution obtained by diluting component (a) or (a′) with ion exchange water to attain a total amount of 5 mL and a concentration of 0.2 mass % was prepared and placed in a glass test tube, and the fluorescent dye rhodamine 6G (FUJIFILM Wako Pure Chemical Corporation) was then added to attain a final concentration of 0.02 mM. After the test tube was placed in an ice bath to condition a temperature at 5° C., the temperature was raised at a temperature rise rate of 0.5° C./min, and a temperature at which the solution emitted fluorescence was taken as the krafft point. Component (a) or (a′) which had emitted fluorescence at 5° C. was considered to have a krafft point of less than 5° C.

[6] = 500 ppm, hardness of water 4 °DH, contact time 10 min
[7] = 100 ppm, hardness of water 0 °DH, contact time 0.5 min
[8] = 100 ppm, hardness of water 0 °DH, contact time 1 min
[9] = 100 ppm, hardness of water 0 °DH, contact time 5 min
[10] = 100 ppm, hardness of water 0 °DH, contact time 10 min
[11] = hardness of water 0 °DH, contact time 10 min
[12] = Human coronavirus, hardness of water 0 °DH, contact time 10 min, […]

Compound	Evaluation result (Δ LOG (FFU/mL) class) [1, 6]	inactivation effect in the presence of hardness components (in words) ([1]; 500 ppm)	critical micelle concentration (25° C.) [2]	Evaluation result (Δ LOG (FFU/mL) class) [1, 7]	Evaluation result (Δ LOG (FFU/mL) class) [1, 8]	Evaluation result (Δ LOG (FFU/mL) class) [1, 9]	Evaluation result (Δ LOG (FFU/mL) class) [1, 10]	Minimum inactivation concentration [1, 11]	Minimum inactivation concentration [3]	Minimum inactivation concentration [4]	Minimum inactivation concentration [3, 12]	krafft point [5]	inactivation effects on the enveloped virus by short-time contact (in words) ([1]; Table 4: influenza virus, 100 ppm, 0 °DH, contact 0.5 to 10 min, compared to comparative examples 5 and 6)
CCCCCCCC/C=C\CCCCCCCC(=O)[O-].[K+] [(a′-5), potassium oleate]	1 (a Δ LOG (FFU/mL) of the infectious titers of less than 1)	insufficient inactivation effect	0.0015 mol/L										
CCCCC(CC)COC(=O)CC(C(=O)OCC(CC)CCCC)S(=O)(=O)[O-].[Na+] (stereo not shown) [(a′-1), sodium di(2-ethylhexyl)sulfosuccinate]			0.0028 mol/L	1 (a Δ LOG (FFU/mL) of the infectious titers of less than 1)	1 (a Δ LOG (FFU/mL) of the infectious titers of less than 1)	1 (a Δ LOG (FFU/mL) of the infectious titers of less than 1)	2 (a Δ LOG (FFU/mL) of 1 or more and less than 2)	250 ppm	>250 ppm	250 ppm			
CCCCCCCCCCCCOS(=O)(=O)[O-].[Na+] [(a′-4), sodium alkyl sulfate with 12 carbons]			0.0082 mol/L					>500 ppm		>500 ppm	>2000 ppm		
CCCCCCCCCCCCCCCCOS(=O)(=O)[O-].[Na+] [(a′-3), sodium alkyl sulfate with 16 carbons]			0.00045 mol/L					>500 ppm		>500 ppm	>>2000 ppm	40 °C	
sodium di(2-propylheptyl)sulfosuccinate [(a-1)]	4 (a Δ LOG (FFU/mL) of 3 or more)	high inactivation effects	0.00035 mol/L	4 (a Δ LOG (FFU/mL) of 3 or more)	4 (a Δ LOG (FFU/mL) of 3 or more)	4 (a Δ LOG (FFU/mL) of 3 or more)	4 (a Δ LOG (FFU/mL) of 3 or more)	50 ppm		10 ppm	100 ppm		high inactivation effects
